Measurements as given in ChEMBL document CHEMBL4725351, “Cyclic Derivative of Host-Defense Peptide IDR-1018 Improves Proteolytic Stability, Suppresses Inflammation, and Enhances In Vivo Activity” (J Med Chem, 2020).
≈ marks a conversion by molar mass, not a printed value. Calls of active or inactive are those of the source. The rule behind the calls is not given here. Where a SMILES comes first, the peptide text is derived from it. Bridges are numbered along the chain shown (N, C = ends).

Experiments:
PBMC [1] = test: Immunomodulatory activity in human PBMC assessed as increase in IL-1RA production at 25 ug/ml measured after overnight incubation by ELISA; assay type: functional, tissue-based; conditions: dose 25.0 µg/ml
Staphylococcus aureus [2] = test: Antibacterial activity against Staphylococcus aureus USA300 LAC infected in CD1 mouse assessed as reduction in bacterial load at 7.5 mg/kg, sc administered at infection site measured after 3 days by colony counting method relative to control; assay type: functional; conditions: time 3.0 day
Escherichia coli [3] = test: Antibacterial activity against Escherichia coli ATTC 489 measured after overnight incubation by microtitre plate based spectrophotometric method; assay type: functional
[4] = Aggregation property of the compound in water at 1 mg/ml by turbidimetric method; assay type: physicochemical; conditions: buffer
Staphylococcus aureus [5] = test: Antibiofilm activity against methicillin-resistant Staphylococcus aureus USA300 LAC incubated for 24 hrs under shaking condition by turbidometric method; assay type: functional
Acinetobacter baumannii [6] = test: Antibacterial activity against Acinetobacter baumannii 5015 measured after overnight incubation by microtitre plate based spectrophotometric method; assay type: functional
Pseudomonas aeruginosa [7] = test: Antibiofilm activity against Pseudomonas aeruginosa PA14 incubated for 24 hrs under shaking condition by turbidometric method; assay type: functional
Escherichia coli [8] = test: Antibiofilm activity against Escherichia coli ATTC 489 incubated for 24 hrs under shaking condition by turbidometric method; assay type: functional
Staphylococcus aureus [9] = test: Antibacterial activity against methicillin-resistant Staphylococcus aureus USA300 LAC measured after overnight incubation by microtitre plate based spectrophotometric method; assay type: functional
Acinetobacter baumannii [10] = test: Antibiofilm activity against Acinetobacter baumannii 17918 incubated for 24 hrs under shaking condition by turbidometric method; assay type: functional
[11] = Aggregation property of the compound in sodium phosphate solution at 10 mM by turbidimetric method; assay type: physicochemical; conditions: 10000 µM
Acinetobacter baumannii [12] = test: Antibiofilm activity against Acinetobacter baumannii 5015 incubated for 24 hrs under shaking condition by turbidometric method; assay type: functional
Staphylococcus aureus [13] = test: Antibacterial activity against methicillin-resistant Staphylococcus aureus SAP0017 measured after overnight incubation by microtitre plate based spectrophotometric method; assay type: functional
Staphylococcus aureus [14] = test: Antibacterial activity against Staphylococcus aureus USA300 LAC infected in CD1 mouse assessed as reduction in dermonecrosis at 7.5 mg/kg, sc administered at infection site measured after 3 days by caliper method relative to control; assay type: functional; conditions: time 3.0 day
Trypsin [15] = molecular target: T1, Trypsin (Homo sapiens, UniProt P07477+P07478+P35030); test: Stability of the compound in pH 8.2 ammonium bicarbonate buffer assessed as trypsin (unknown origin)-mediated drug degradation at 20 ug/ml measured up to 120 mins by MALDI-TOF analysis; assay type: ADME, protein assay; conditions: pH 8.2, 2 h, at 20 µg/mL
[16] = Aggregation property of the compound in saline at 1 mg/ml by turbidimetric method; assay type: physicochemical; conditions: buffer
Pseudomonas aeruginosa [17] = test: Antibacterial activity against Pseudomonas aeruginosa PA14 measured after overnight incubation by microtitre plate based spectrophotometric method; assay type: functional
[18] = Aggregation property of the compound in sodium citrate solution at 10 mM by turbidimetric method; assay type: physicochemical; conditions: 10000 µM
Klebsiella pneumoniae [19] = test: Antibiofilm activity against Klebsiella pneumoniae ATTC 13883 incubated for 24 hrs under shaking condition by turbidometric method; assay type: functional
Klebsiella pneumoniae [20] = test: Antibacterial activity against Klebsiella pneumoniae ATTC 13883 measured after overnight incubation by microtitre plate based spectrophotometric method; assay type: functional
[21] = Aggregation property of the compound in 5% dextrose at 1 mg/ml by turbidimetric method; assay type: physicochemical
PBMC [22] = test: Immunomodulatory activity in human PBMC assessed as reduction in LPS-induced TNFalpha production at 25 ug/ml measured after overnight incubation by ELISA; assay type: functional, tissue-based; conditions: dose 25.0 µg/ml
PBMC [23] = test: Immunomodulatory activity in human PBMC assessed as reduction in LPS-induced IL1beta production at 25 ug/ml measured after overnight incubation by ELISA; assay type: functional, tissue-based; conditions: dose 25.0 µg/ml
[24] = Immunomodulatory activity in human PBMC assessed as increase in LPS-induced MCP1 production at 25 ug/ml measured after overnight incubation by ELISA; assay type: functional; conditions: dose 25 µg/ml
[25] = Aggregation property of the compound in sodium nitrate solution at 10 mM by turbidimetric method; assay type: physicochemical; conditions: 10000 µM
PBMC [26] = test: Immunomodulatory activity in human PBMC assessed as change in TNFalpha production at 25 ug/ml measured after overnight incubation by ELISA; assay type: functional, tissue-based; conditions: dose 25.0 µg/ml
Pseudomonas aeruginosa [27] = test: Antibacterial activity against Pseudomonas aeruginosa PAO1 measured after overnight incubation by microtitre plate based spectrophotometric method; assay type: functional
[28] = Cytotoxicity against human PBMC assessed as reduction in cell viability at 100 ug/ml measured after 24 hrs by LDH assay; assay type: tissue-based; conditions: dose 100 µg/ml
[29] = Aggregation of the compound in human PBMC assessed as amorphous morphology at 50 ug/ml measured after 4 hrs by microscopic analysis; assay type: ADME, tissue-based; conditions: dose 50 µg/ml
PBMC [30] = test: Immunomodulatory activity in human PBMC assessed as increase in MCP1 production at 25 ug/ml measured after overnight incubation by ELISA; assay type: functional, tissue-based; conditions: dose 25.0 µg/ml
Pseudomonas aeruginosa [31] = test: Antibiofilm activity against Pseudomonas aeruginosa PAO1 incubated for 24 hrs under shaking condition by turbidometric method; assay type: functional
[32] = Toxicity in CD1 mouse assessed as precipitation under the skin at 10 mg/kg, sc measured after 16 hrs; assay type: organism-based; conditions: in vivo
PBMC [33] = test: Immunomodulatory activity in human PBMC assessed as increase in LPS-induced IL1RA production at 25 ug/ml measured after overnight incubation by ELISA; assay type: functional; conditions: dose 25.0 µg/ml
[34] = Aggregation property of the compound in RPMI medium with 1% FBS at 1 mg/ml by turbidimetric method; assay type: physicochemical
PBMC [35] = test: Immunomodulatory activity in human PBMC assessed as increase in LPS-induced IL10 production at 25 ug/ml measured after overnight incubation by ELISA; assay type: functional; conditions: dose 25.0 µg/ml
Staphylococcus aureus [36] = test: Antibiofilm activity against methicillin-resistant Staphylococcus aureus SAP0017 incubated for 24 hrs under shaking condition by turbidometric method; assay type: functional
Trypsin [37] = molecular target: T1, Trypsin; test: Stability of the compound in pH 8.2 ammonium bicarbonate buffer assessed as trypsin (unknown origin)-mediated drug degradation at 20 ug/ml measured up to 120 mins by RP-HPLC analysis; assay type: ADME, protein assay; conditions: pH 8.2, 2 h, at 20 µg/mL
Acinetobacter baumannii [38] = test: Antibacterial activity against Acinetobacter baumannii 17918 measured after overnight incubation by microtitre plate based spectrophotometric method; assay type: functional
Acinetobacter baumannii [39] = test: Antibiofilm activity against 24 hrs preformed Acinetobacter baumannii 5015 biofilm assessed as reduction in biofilm viability at 100 ug/ml by TTC assay; assay type: functional, organism-based; conditions: dose 100.0 µg/ml
Pseudomonas aeruginosa [40] = test: Antibiofilm activity against 24 hrs preformed Pseudomonas aeruginosa PA14 biofilm assessed as reduction in biofilm viability at 100 ug/ml by TTC assay; assay type: functional, organism-based; conditions: dose 100.0 µg/ml
Pseudomonas aeruginosa [41] = test: Antibiofilm activity against 24 hrs preformed Pseudomonas aeruginosa PAO1 biofilm assessed as reduction in biofilm viability at 100 ug/ml by TTC assay; assay type: functional, organism-based; conditions: dose 100.0 µg/ml
Klebsiella pneumoniae [42] = test: Antibiofilm activity against 24 hrs preformed Klebsiella pneumoniae ATTC 13883 biofilm assessed as reduction in biofilm viability at 100 ug/ml by TTC assay; assay type: functional, organism-based; conditions: dose 100.0 µg/ml
Escherichia coli [43] = test: Antibiofilm activity against 24 hrs preformed Escherichia coli ATTC 489 biofilm assessed as reduction in biofilm viability at 100 ug/ml by TTC assay; assay type: functional, organism-based; conditions: dose 100.0 µg/ml
Acinetobacter baumannii [44] = test: Antibiofilm activity against 24 hrs preformed Acinetobacter baumannii 17918 biofilm assessed as reduction in biofilm viability at 100 ug/ml by TTC assay; assay type: functional, organism-based; conditions: dose 100.0 µg/ml

Compound	Activity (PBMC [1])	MIC (Escherichia coli [3])	Activity [4]	MBEC (Staphylococcus aureus [5])	MIC (Acinetobacter baumannii [6])	MBEC (Pseudomonas aeruginosa [7])	MBEC (Escherichia coli [8])	MIC (Staphylococcus aureus [9])	MBEC (Acinetobacter baumannii [10])	Activity [11]	MBEC (Acinetobacter baumannii [12])	MIC (Staphylococcus aureus [13])	Stabilty (Trypsin [15])	MIC (Pseudomonas aeruginosa [17])	MBEC (Klebsiella pneumoniae [19])	MIC (Klebsiella pneumoniae [20])	MIC (Pseudomonas aeruginosa [27])	MBEC (Pseudomonas aeruginosa [31])	MBEC (Staphylococcus aureus [36])	MIC (Acinetobacter baumannii [38])	also measured
CC[C@H](C)[C@@H]1NC(=O)[C@H](CCCNC(=N)N)NC(=O)[C@H](C(C)C)NC(=O)[C@H](C)NC(=O)[C@H](C(C)C)NC(=O)[C@H]([C@@H](C)CC)NC(=O)[C@H](CC(C)C)NC(=O)[C@H](CCCNC(=N)N)NC(=O)[C@H](C(C)C)NC(=O)[C@@H](N)CSSC[C@@H](C(N)=O)NC(=O)[C@H](CCCNC(=N)N)NC(=O)[C@H](CCCNC(=N)N)NC(=O)[C@H](Cc2c[nH]c3ccccc23)NC1=O (H-CVRLIVAVRIWRRC-NH2; disulfide 1-14)	Active	28.7 µM (≈ 49.9 µg/mL)	Not Active	18.3 µM	57.4 µM (≈ 99.9 µg/mL)	57.4 µM	36.7 µM	28.7 µM (≈ 49.9 µg/mL)	57.4 µM	Active	57.4 µM	28.7 µM (≈ 49.9 µg/mL)	Stable	57.4 µM (≈ 99.9 µg/mL)	28.7 µM	28.7 µM (≈ 49.9 µg/mL)	57.4 µM (≈ 99.9 µg/mL)	57.4 µM	18.3 µM	57.4 µM (≈ 99.9 µg/mL)	Activity (Staphylococcus aureus [2]): inactive; Activity (Staphylococcus aureus [14]): inactive; Activity [16]: Not Active; Activity [18]: Active; Activity [21]: Not Active; Activity (PBMC [22]): Active; Activity (PBMC [23]): Active; Activity [24]: 35%; Activity [25]: Active; Activity (PBMC [26]): inactive; Activity [28]: Toxic; Activity [29]: Not Active; Activity (PBMC [30]): Active; Activity [32]: Toxic; Activity (PBMC [33]): Active; Activity [34]: Active; Activity (PBMC [35]): Active; Stabilty (Trypsin [37]): Stable
CC[C@H](C)[C@@H]1NC(=O)[C@H](CCCNC(=N)N)NC(=O)[C@H](C(C)C)NC(=O)[C@H](C)NC(=O)[C@H](C(C)C)NC(=O)[C@H]([C@@H](C)CC)NC(=O)[C@H](CC(C)C)NC(=O)[C@H](CCCNC(=N)N)NC(=O)[C@H](C(C)C)NC(=O)[C@H](CCCNC(=N)N)NC(=O)[C@H](CCCNC(=N)N)NC(=O)[C@H](Cc2c[nH]c3ccccc23)NC1=O (cyclo(AVRIWRRVRLIV))	Active	65.8 µM (≈ 99.9 µg/mL)	Not Active	65.8 µM	65.8 µM (≈ 99.9 µg/mL)	>65.8 µM	>65.8 µM	65.8 µM (≈ 99.9 µg/mL)	>65.8 µM	Not Active	>65.8 µM	65.8 µM (≈ 99.9 µg/mL)	Stable	> 65.8 µM	>65.8 µM	65.8 µM (≈ 99.9 µg/mL)	> 65.8 µM	>65.8 µM	65.8 µM	65.8 µM (≈ 99.9 µg/mL)	Activity [16]: Not Active; Activity [18]: Not Active; Activity [21]: Not Active; Activity [25]: Not Active; Activity (PBMC [26]): Active; Activity [28]: Toxic; Activity [29]: Not Active; Activity (PBMC [30]): Active; Activity [34]: Active; Stabilty (Trypsin [37]): Stable
CCCCCCCCCCCCCCCC[N+](C)(C)Cc1ccccc1.[Cl-] [CETALKONIUM CHLORIDE]		7.8 µM		20.1 µM	7.8 µM	>126 µM	40.3 µM	3.7 µM	40.3 µM		40.3 µM	3.7 µM		> 126 µM	63.1 µM	7.8 µM	> 126 µM	>126 µM	15.1 µM	7.8 µM	
CN[C@H](CC(C)C)C(=O)N[C@H]1C(=O)N[C@@H](CC(N)=O)C(=O)N[C@H]2C(=O)N[C@H]3C(=O)N[C@H](C(=O)N[C@H](C(=O)O)c4cc(O)cc(O)c4-c4cc3ccc4O)[C@H](O)c3ccc(c(Cl)c3)Oc3cc2cc(c3O[C@@H]2O[C@H](CO)[C@@H](O)[C@H](O)[C@H]2O[C@H]2C[C@](C)(N)[C@H](O)[C@H](C)O2)Oc2ccc(cc2Cl)[C@H]1O [VANCOMYCIN]		> 68 µM		>68 µM	> 68 µM	>68 µM	>68 µM	0.4 µM (≈ 0.58 µg/mL)	>68 µM		>68 µM	0.4 µM (≈ 0.58 µg/mL)		> 68 µM	>68 µM	> 68 µM	> 68 µM	>68 µM	>68 µM	> 68 µM	
COLISTIN		1.2 µM		> 86 µM	1.2 µM	> 86 µM	> 86 µM	> 86 µM	> 86 µM		> 86 µM	> 86 µM		2.5 µM	> 86 µM	1.2 µM	2.5 µM	> 86 µM	> 86 µM	1.2 µM	Activity (Acinetobacter baumannii [39]): inactive; Activity (Pseudomonas aeruginosa [40]): inactive; Activity (Pseudomonas aeruginosa [41]): inactive; Activity (Klebsiella pneumoniae [42]): inactive; Activity (Escherichia coli [43]): inactive; Activity (Acinetobacter baumannii [44]): inactive
